From ChEMBL document CHEMBL5058646 (2022)

Key:
[1] = molecular target: Vasopressin V1a receptor (Homo sapiens) (UniProt P37288); assay: GPCRScan assay: inhibition of V1A; set-up: radioligand conc. used [nm], parental cells; details: Compound concentration 10.0 uM
[2] = molecular target: Bone morphogenetic protein receptor type-2 (Homo sapiens) (UniProt Q13873); assay: BMPR2 SGC Tm panel (DSF); details: Compound concentration 20.0 uM
[3] = molecular target: Casein kinase II subunit alpha' (Homo sapiens) (UniProt P19784); assay: CSNK2A2 SGC Tm panel (DSF); details: Compound concentration 20.0 uM
[4] = molecular target: Dual specificity mitogen-activated protein kinase kinase 7 (Homo sapiens) (UniProt O14733); assay: MAP2K7 SGC Tm panel (DSF); details: Compound concentration 20.0 uM
[5] = molecular target: Serine/threonine-protein kinase 26 (Homo sapiens) (UniProt Q9P289); assay: MST4 SGC Tm panel (DSF); details: Compound concentration 20.0 uM
[6] = molecular target: Serine/threonine-protein kinase 17B (Homo sapiens) (UniProt O94768); assay: STK17B SGC Tm panel (DSF); details: Compound concentration 20.0 uM
[7] = molecular target: Serine/threonine-protein kinase 24 (Homo sapiens) (UniProt Q9Y6E0); assay: STK24 SGC Tm panel (DSF); details: Compound concentration 20.0 uM
[8] = molecular target: Serine/threonine-protein kinase WNK1 (Homo sapiens) (UniProt Q9H4A3); assay: WNK1 SGC Tm panel (DSF); details: Compound concentration 20.0 uM
[9] = molecular target: Muscarinic acetylcholine receptor M2 (Homo sapiens) (UniProt P08172); details: Compound concentration 10.0 uM
[10] = molecular target: Sigma intracellular receptor 2 (Homo sapiens, UniProt Q5BJF2); details: Compound concentration 10.0 uM
[11] = molecular target: Transcription regulator protein BACH2 (Homo sapiens) (UniProt Q9BYV9); details: SUD4, Compound concentration 1.0 uM
[12] = molecular target: Zinc finger and BTB domain-containing protein 21 (Homo sapiens) (UniProt Q9ULJ3); details: SUD4, Compound concentration 1.0 uM
[13] = molecular target: Zinc finger and BTB domain-containing protein 43 (Homo sapiens) (UniProt O43298); details: SUD4, Compound concentration 1.0 uM
[14] = molecular target: T1, Zinc finger and BTB domain-containing protein 1 (Homo sapiens) (UniProt Q9Y2K1); details: SUD4, Compound concentration 1.0 uM
T1 sequence (whole entry): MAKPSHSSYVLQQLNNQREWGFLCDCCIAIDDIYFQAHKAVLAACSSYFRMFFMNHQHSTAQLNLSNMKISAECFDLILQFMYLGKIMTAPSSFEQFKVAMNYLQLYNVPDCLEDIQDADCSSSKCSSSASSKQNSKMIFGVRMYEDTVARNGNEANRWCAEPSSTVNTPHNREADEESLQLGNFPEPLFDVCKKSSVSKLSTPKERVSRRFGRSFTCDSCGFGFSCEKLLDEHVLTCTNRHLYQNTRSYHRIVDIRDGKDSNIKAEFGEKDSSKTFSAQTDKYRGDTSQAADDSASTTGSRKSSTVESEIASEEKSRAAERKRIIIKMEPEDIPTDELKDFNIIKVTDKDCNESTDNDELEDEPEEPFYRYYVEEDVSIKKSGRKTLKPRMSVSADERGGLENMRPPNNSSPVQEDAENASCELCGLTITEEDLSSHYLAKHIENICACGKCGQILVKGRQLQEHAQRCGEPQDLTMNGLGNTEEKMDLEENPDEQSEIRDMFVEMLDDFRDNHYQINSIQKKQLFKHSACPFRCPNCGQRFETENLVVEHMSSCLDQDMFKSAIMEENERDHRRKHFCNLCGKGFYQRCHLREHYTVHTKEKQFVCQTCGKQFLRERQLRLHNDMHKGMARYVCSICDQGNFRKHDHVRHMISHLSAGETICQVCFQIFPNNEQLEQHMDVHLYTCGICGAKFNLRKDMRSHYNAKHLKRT

[15] = molecular target: T2, Zinc finger and BTB domain-containing protein 11 (Homo sapiens) (UniProt O95625); details: OCI-Ly1, Compound concentration 1.0 uM
T2 sequence (whole entry): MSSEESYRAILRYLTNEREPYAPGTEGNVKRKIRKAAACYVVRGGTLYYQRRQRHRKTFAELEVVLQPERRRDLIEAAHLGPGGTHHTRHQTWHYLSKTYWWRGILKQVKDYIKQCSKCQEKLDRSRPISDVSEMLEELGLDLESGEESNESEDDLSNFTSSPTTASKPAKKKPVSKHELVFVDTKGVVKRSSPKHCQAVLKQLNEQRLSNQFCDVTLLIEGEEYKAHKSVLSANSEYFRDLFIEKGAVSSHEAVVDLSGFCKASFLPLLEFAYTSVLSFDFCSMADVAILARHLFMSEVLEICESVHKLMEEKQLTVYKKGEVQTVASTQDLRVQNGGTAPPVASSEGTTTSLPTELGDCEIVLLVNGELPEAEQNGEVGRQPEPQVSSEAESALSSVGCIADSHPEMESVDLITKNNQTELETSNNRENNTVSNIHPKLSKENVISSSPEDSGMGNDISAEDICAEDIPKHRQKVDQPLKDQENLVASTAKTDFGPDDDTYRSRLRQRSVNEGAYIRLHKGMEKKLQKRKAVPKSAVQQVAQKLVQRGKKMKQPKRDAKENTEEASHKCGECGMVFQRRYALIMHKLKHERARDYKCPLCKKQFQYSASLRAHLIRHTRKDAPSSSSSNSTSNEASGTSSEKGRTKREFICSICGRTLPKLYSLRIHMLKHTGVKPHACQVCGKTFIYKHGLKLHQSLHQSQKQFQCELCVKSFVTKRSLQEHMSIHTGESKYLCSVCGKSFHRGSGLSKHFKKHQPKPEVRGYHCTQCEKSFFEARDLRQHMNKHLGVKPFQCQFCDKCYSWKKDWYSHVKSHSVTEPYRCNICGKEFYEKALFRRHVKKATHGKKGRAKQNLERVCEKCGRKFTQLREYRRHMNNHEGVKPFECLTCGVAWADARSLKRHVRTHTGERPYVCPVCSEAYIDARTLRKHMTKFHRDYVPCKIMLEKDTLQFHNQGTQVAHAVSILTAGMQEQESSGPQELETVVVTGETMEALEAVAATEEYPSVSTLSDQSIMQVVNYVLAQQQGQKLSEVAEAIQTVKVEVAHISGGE

Sequence of Serine/threonine-protein kinase 26 (Homo sapiens) (Q9P289 2-416 limits assumed): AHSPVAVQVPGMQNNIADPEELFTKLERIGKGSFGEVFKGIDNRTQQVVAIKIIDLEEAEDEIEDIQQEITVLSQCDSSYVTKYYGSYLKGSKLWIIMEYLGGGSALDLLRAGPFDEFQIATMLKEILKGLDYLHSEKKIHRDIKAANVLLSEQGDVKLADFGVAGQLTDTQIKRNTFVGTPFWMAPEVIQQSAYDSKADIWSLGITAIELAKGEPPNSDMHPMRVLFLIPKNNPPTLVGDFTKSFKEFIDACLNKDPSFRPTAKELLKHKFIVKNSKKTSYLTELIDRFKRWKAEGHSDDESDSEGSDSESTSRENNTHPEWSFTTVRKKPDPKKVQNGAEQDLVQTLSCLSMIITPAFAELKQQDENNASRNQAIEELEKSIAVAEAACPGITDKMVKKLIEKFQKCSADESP
Sequence of Vasopressin V1a receptor (Homo sapiens) (P37288 whole entry, looked up): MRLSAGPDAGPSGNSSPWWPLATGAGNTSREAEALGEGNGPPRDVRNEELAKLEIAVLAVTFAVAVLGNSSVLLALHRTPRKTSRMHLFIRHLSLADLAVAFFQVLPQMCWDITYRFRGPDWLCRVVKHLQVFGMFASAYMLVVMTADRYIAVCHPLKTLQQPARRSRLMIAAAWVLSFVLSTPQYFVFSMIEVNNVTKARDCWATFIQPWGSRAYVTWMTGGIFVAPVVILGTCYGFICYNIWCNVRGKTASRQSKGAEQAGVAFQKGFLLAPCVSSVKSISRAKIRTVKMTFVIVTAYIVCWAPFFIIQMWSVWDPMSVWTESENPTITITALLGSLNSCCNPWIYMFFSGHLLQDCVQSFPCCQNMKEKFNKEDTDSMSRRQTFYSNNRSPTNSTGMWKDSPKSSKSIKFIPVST
Sequence of Casein kinase II subunit alpha' (Homo sapiens) (P19784 whole entry, looked up): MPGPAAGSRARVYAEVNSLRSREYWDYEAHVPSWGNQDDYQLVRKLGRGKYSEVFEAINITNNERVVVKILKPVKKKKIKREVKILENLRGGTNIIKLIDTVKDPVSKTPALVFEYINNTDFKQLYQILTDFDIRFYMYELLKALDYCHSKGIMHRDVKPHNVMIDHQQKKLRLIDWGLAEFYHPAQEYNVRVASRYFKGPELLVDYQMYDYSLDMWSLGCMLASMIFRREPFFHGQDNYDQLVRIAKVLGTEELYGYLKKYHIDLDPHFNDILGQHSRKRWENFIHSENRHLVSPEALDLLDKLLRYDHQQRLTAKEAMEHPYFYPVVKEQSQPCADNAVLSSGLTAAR
Sequence of Muscarinic acetylcholine receptor M2 (Homo sapiens) (P08172 whole entry): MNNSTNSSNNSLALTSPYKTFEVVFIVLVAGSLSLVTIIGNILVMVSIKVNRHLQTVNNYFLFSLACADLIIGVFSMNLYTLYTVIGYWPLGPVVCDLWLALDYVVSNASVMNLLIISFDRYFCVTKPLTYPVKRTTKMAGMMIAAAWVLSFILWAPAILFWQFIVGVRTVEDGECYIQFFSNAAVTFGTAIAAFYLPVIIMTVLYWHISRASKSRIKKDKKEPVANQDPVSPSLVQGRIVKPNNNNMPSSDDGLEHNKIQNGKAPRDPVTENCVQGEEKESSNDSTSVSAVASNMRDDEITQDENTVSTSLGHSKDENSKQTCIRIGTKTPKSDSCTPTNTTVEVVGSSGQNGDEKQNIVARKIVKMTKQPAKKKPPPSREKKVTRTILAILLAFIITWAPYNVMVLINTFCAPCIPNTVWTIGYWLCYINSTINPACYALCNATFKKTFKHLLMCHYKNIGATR
Sequence of Serine/threonine-protein kinase WNK1 (Homo sapiens) (Q9H4A3 whole entry, looked up): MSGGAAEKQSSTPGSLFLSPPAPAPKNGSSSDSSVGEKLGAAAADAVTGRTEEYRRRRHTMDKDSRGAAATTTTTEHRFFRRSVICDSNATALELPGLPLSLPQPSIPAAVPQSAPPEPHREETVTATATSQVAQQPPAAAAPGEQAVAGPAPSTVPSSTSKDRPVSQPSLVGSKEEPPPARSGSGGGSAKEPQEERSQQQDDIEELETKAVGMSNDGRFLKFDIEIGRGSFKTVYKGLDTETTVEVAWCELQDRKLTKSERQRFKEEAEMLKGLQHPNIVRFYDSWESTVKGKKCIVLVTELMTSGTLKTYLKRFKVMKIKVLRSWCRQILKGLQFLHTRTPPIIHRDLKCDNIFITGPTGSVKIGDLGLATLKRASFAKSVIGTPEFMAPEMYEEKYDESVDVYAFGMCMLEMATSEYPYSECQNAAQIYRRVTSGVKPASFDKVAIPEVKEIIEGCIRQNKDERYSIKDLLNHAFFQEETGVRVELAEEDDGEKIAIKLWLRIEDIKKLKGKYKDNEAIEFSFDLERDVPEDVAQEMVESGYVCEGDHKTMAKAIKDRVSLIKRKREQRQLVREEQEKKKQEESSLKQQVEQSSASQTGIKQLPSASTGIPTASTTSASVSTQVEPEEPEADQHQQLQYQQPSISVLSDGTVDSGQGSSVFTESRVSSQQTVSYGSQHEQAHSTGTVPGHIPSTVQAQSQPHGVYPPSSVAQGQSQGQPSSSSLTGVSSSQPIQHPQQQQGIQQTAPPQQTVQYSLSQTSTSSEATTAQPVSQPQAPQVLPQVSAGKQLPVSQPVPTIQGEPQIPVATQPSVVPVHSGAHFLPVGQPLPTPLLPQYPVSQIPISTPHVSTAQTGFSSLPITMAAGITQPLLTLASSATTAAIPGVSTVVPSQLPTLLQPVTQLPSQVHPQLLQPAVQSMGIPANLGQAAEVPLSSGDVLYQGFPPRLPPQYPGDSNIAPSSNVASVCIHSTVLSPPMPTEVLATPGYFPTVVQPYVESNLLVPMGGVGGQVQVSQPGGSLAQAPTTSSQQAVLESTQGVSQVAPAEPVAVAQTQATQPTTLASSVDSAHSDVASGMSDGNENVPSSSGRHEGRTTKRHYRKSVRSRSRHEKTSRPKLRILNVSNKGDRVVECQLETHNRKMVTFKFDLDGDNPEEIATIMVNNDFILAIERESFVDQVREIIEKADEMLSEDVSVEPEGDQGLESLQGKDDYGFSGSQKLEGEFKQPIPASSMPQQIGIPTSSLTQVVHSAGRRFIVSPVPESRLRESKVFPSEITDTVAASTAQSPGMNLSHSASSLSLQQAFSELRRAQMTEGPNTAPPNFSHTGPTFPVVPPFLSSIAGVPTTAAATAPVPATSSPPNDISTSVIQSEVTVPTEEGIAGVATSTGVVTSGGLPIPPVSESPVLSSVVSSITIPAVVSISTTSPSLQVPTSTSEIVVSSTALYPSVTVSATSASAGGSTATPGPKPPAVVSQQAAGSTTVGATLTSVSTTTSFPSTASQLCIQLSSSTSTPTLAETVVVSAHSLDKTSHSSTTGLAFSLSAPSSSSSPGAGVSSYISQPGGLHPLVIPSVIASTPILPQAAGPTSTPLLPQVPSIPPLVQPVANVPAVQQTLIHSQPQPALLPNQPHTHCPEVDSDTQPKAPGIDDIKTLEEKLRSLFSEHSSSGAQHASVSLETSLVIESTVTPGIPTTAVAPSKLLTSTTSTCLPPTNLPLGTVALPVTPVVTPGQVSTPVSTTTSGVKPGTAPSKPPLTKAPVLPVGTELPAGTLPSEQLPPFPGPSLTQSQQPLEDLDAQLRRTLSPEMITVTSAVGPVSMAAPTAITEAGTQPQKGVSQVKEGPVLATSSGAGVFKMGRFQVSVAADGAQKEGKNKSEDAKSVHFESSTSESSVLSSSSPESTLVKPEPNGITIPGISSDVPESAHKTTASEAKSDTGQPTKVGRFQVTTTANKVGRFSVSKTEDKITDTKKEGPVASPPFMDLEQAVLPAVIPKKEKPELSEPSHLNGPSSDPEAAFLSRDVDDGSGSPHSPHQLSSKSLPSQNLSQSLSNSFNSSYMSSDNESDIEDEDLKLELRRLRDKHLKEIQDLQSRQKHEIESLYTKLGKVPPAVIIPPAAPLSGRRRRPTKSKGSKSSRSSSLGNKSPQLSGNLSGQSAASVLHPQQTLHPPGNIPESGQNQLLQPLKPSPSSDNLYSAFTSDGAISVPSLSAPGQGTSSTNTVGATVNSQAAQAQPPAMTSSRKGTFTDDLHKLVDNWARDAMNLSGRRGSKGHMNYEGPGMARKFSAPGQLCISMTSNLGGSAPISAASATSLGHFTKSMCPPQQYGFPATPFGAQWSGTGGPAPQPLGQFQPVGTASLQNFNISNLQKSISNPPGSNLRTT
Sequence of Serine/threonine-protein kinase 17B (Homo sapiens) (O94768 whole entry): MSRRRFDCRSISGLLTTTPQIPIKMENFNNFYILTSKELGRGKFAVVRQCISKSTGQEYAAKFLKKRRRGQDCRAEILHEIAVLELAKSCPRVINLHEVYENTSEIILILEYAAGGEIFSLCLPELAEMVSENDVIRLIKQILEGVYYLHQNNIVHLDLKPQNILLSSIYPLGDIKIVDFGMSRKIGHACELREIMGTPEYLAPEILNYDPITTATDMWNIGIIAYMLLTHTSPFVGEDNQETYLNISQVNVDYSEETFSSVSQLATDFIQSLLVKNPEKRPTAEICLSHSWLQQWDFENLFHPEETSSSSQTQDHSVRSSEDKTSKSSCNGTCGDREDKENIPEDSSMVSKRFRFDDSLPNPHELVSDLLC
Sequence of Dual specificity mitogen-activated protein kinase kinase 7 (Homo sapiens) (O14733 whole entry): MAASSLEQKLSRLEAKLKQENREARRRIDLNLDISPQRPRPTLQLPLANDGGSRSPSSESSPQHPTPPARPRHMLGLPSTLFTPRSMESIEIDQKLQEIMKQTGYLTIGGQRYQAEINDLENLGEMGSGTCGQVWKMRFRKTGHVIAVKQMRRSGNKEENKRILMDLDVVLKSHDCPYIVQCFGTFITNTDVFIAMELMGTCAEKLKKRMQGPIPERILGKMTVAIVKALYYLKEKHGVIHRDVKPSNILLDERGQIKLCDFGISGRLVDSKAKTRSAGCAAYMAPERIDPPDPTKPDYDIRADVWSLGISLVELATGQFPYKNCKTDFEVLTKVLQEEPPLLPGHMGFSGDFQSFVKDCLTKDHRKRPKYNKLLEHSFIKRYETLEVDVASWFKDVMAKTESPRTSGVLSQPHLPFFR
Sequence of Sigma intracellular receptor 2 (Q5BJF2 whole entry): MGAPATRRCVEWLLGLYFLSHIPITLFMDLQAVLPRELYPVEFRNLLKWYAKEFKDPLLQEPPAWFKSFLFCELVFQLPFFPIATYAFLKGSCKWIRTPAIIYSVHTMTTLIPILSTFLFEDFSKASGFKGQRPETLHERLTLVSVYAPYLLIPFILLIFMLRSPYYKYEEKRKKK

inhibition [1]: 78.6%
Tm [2]: 51 °C
Tm [3]: 43 °C
Tm [4]: 44 °C
Tm [5]: 44 °C
Tm [6]: 43 °C
Tm [7]: 36 °C
Tm [8]: 51 °C
inhibition [9]: 0.77%
inhibition [10]: 85.7%
LogFC [11]: -0.0358
LogFC [12]: 0.0103
LogFC [13]: 0.0389
LogFC [14]: -0.0255
LogFC [15]: -0.00672
SMILES: C[C@@H]1CN(c2ncc(Cl)c(Nc3ccc4c(c3)n(CCC(C)(C)O)c(=O)n4C)n2)C[C@H](C)C1(F)F
